Source: patent US10208082B2, “Sustained-release pharmaceutical composition for treatment and prevention of eye disease” (Daiichi Sankyo Company, Limited, priority 2014, dated 2019)

Legend:
[1] = tested on: NQO1; experiment: NQO1 assay in Hepa1c1c7 cells; format: cell-based, mouse; details: approximately 48 hours culture, mean of 3 wells
Protocol: Hepa1c1c7 cells (mouse hepatic cell line, ATCC, catalog No. CRL-2026) were cultured (5% CO2, 37° C.). A DMEM (Life Technologies Japan Ltd., catalog No. 11965-092) medium also containing 10% inactivated FBS was used. The medium contained 100 units/mL (final concentration) penicillin and […] (final concentration) streptomycin. The NQO1 assay was conducted according to previous reports (Anal Biochem 1998; 169: 328; and Methods Enzymol 2004; 382: 243).
The Hepa1c1c7 cells were seeded at 10000 cells/well in a 96-well plate. Approximately 24 hours later, the medium was replaced with a medium containing terpenoid derivative (III), terpenoid derivative (I), or terpenoid derivative (II), and the culture was further performed for approximately 48 hours. A lysis solution (a solution containing 2 mM EDTA and 0.8% digitonin), a reaction solution (a solution containing 0.025 M of tris-HCl, 0.067% of albumin, 0.01% of Tween-20, 2 U/mL of glucose-6-phosphate dehydrogenase, 5 μM of flavin adenine dinucleotide, 1 […], 30 μM of nicotinamide adenine dinucleotide phosphate, 0.03% of 3-(4, 5-dimethyl-2-thiazolyl)-2,5-diphenyltetrazolium bromide (MTT), and 50 μM of menadione), and a stop solution (a solution containing 0.3 mM dicumarol and 5 mM potassium dihydrogen phosphate, pH 7.4) were prepared. After removal of the medium, 50 μL of the lysis solution was added thereto, and the mixture was left standing at 37° C. for 10 minutes. The reaction mixture was further shaken at room temperature for 10 minutes.
Two hundred uL of the solution was added thereto, and the mixture was left standing at room temperature for 5 minutes. Fifty μL of the stop solution was added thereto, and the absorbance at 490 nm was measured.
The test results were analyzed using Prism (GraphPad Software, Inc., Ver. 5) to calculate the CD value (concentration of double NQO1 activity) of the concentration at which the activity of NQO1 was increased 2-fold. Each group consisted of 3 wells and indicated as a mean of CD values. […]

[2] = Pharmacokinetic test of microspheres containing terpenoid derivative (III) in rabbit eye; format: in vivo; details: male, Kbl:NZW (white rabbit), intravitreal fluid, other: intravitreal, mean of 4 eyes and SD
Protocol: Suspensions were prepared using each of terpenoid derivative (III) of the present invention, terpenoid derivative (III) of the present invention-PLA-0005 [prepared by using PLA-0005 as the base material and adjusting the mixing ratio of terpenoid derivative (III) of the present invention and PLA-0005 to 1:9], and terpenoid derivative (III) of the present invention-PLA-0020 [prepared by using PLA-0020 as the base material and adjusting the mixing ratio of terpenoid derivative (III) of the present invention and PLA-0020 to 1:9], and saline as a solvent such that the concentration of terpenoid derivative (III) was 3 mM.
50 μL each of the suspensions was intravitreally administered to each white rabbit (Oriental Yeast Co., Ltd., Kbl:NZW, male, 8 weeks old). After the intravitreal administration, the rabbit was euthanized, and the intravitreal fluid and the retina were sampled. The concentration of terpenoid derivative (III) contained in these samples was measured. The numeric values shown in Table 12 below are indicated by a mean from 4 eyes and standard deviation. The drug concentration in each tissue was measured by LC/MS/MS. The tissue was pretreated by dilution with purified water in an amount corresponding to 10 times the weight of the tissue and subsequent homogenization to obtain a measurement sample. A water/acetonitrile (1:1) solution containing an internal standard solution (IS; niflumic acid) was added to the obtained sample to extract the drug. Then, the solution was filtered through a filter and injected to LC/MS/MS.
The LC/MS/MS conditions were as follows: • <UPLC conditions>: Waters Acquity UPLC • analysis column: ACQUITY UPLC BEH C18 1.7 μm • column temperature: 50° C. • mobile phase A: 95% acetonitrile (5 mM ammonium acetate) • mobile phase B: 5% acetonitrile (5 mM ammonium acetate).
• <MS/MS conditions>: analysis apparatus API4000 • Ionization mode: ESI • Ion polarity mode: Positive • Monitor Ion • terpenoid derivative (III) (Precursor ion (m/z): 538.5, Product ion (m/z): 460) • IS (Precursor ion (m/z): 283.2, Product ion (m/z): 265).

SMILES | CD value (concentration of double NQO1 activity) [1] [nM] | concentration at 1 day ([2]; Day 1, intravitreal 50 μL of 3 mM suspension) [nM] | concentration at 2 day ([2]; Day 2, intravitreal 50 μL of 3 mM suspension) [nM] | concentration at 7 day ([2]; Day 7, intravitreal 50 μL of 3 mM suspension) [nM]
COC(=O)[C@@]12CC[C@]3(C)[C@H](C(=O)C=C4[C@@]5(C)[C@H]6O[C@@]6(C#N)C(=O)C(C)(C)[C@@H]5CC[C@]43C)[C@@H]1CC(C)(C)[C@@H](O)C2 [terpenoid derivative (III)] | 1.0 | 79700 ± 22100 | 0.1 | 0.1
COC(=O)[C@@]12CC[C@]3(C)[C@H](C(=O)C=C4[C@@]5(C)[C@H]6O[C@@]6(C#N)C(=O)C(C)(C)[C@@H]5CC[C@]43C)[C@@H]1CC(C)(C)[C@H](O)C2 [terpenoid derivative (II)] | 0.1 | – | – | –
COC(=O)[C@@]12CC[C@]3(C)[C@H](C(=O)C=C4[C@@]5(C)C=C(C#N)C(=O)C(C)(C)[C@@H]5CC[C@]43C)[C@@H]1CC(C)(C)[C@@H](O)C2 [terpenoid derivative (I)] | 0.3 | – | – | –
